US10517910B2 (priority 2015, dated 2019)
Counter-ions that a name gives are not always drawn.

Tested on: HuH-7 cells infected with JX-594 virus
Format: cell-based

COc1cccc2c1C(=O)c1c(O)c3c(c(O)c1C2=O)C[C@@](O)(C(=O)CO)C[C@@H]3O[C@H]1C[C@H](N)[C@H](O)[C@H](C)O1 [Adriamicyn, Doxorubicin hydrochloride]
JX-594 viral replication in vitro: decrease
viral output: decreased
